Among the data in patent publication US20250282720A1, “ALKYLSULFENYL THIOCARBONATES: PRECURSORS TO HYDROPERSULFIDES POTENTLY ATTENUATE OXIDATIVE STRESS” (The Johns Hopkins University, priority 2021, published 2025) are aconitase protein expression and aconitase expression levels values, retold here.

The test relates to aconitase. Briefly: Aconitase protein expression, immunoblot. Type of test: cell-based, human. Here is the method:
Mitochondrial aconitase levels are unaffected by treatment of AST and H2O2. Immunoblot analysis was conducted utilizing enriched-mitochondrial pellets. Results are expressed as SEM with n≥3 for all concentrations;
Given these encouraging results, it was critical to determine whether the RSSH's positive impact on aconitase activity was due to enhanced Fe—S cluster biosynthesis or increased aconitase expression.
(In general: In western blotting, separated proteins are transferred to a membrane and probed.)

Entries after “also recorded” stand apart in the source; their conditions may differ.

In the case of `COC(=O)C(NC(C)=O)C(C)(C)SSC(=O)Oc1ccccc1` (centres unmarked) [Precursor 1a, Methyl 2-acetamido-3-methyl-3-((phenoxycarbonyl)disulfaneyl)butanoate], under “25 μM, 12 h pretreatment, 12 h H2O2, listed as AST”, the aconitase protein expression result was “does not alter aconitase protein expression; also recorded: unaffected”. Moreover, for the setting “in combination with erastin”, the aconitase expression levels entry is reported as “no significant impact”.
